According to article PMC11372076, “A dual inhibitor of PIP5K1C and PIKfyve prevents SARS-CoV-2 entry into cells” (Experimental & Molecular Medicine, 2024):
Read-outs that look alike come from different tables or passages of the source.

Assays:
[1] = tested on: ACE2-mediated endocytosis in HEK293T cells; type: cell-based; conditions: 20 μg/mL spike-RBD, 2 h
SARS-CoV-2 = experiment: microbe, parasite or virus in culture; type: cell-based, SARS-CoV-2 (hCoV-19/Korea/KCDC06/2020); conditions: for EC50: read-out: EC50 (reducing number of spike-positive cells by 50%)
Vero cells [2] = experiment: Endosomal pH change test with acridine orange; type: cell-based; conditions: 1 µM for 1 h
Procedure: This image-based experiment was performed according to our previous report with some modifications. Vero cells were cultured in a glass bottom 35 mm dish (6 × 10^4 cells per well) overnight. Each compound, including 1 µM UNC3230, apilimod or UNI418, was added to Vero cells for 1 h at 37 °C. The cells were stained with acridine orange (Sigma‒Aldrich, A9231) at a final concentration of 4 µg/mL for 30 min. After washing with PBS twice, images were acquired using a confocal microscope (Zeiss LSM 700, Baden-Württemberg, Germany) at two emission wavelengths, 493 to 560 nm and 590 to 720 nm, with excitation at 488 nm. The green-to-red ratio or vacuole size was measured using the built-in software ZEN 3.1.
Fig. 3 UNI418 negatively affects autophagosome-lysosome fusion and endosome acidification. a Live-cell imaging of HEK293T cells stably expressing mCherry-GFP-LC3 treated with 0.5 μM UNI418 at the indicated time points; the images within the white rectangular boxes are magnified on the right side. Scale bar, 30 µm. The number (b) and area (c) of GFP-positive dots per cell were quantified by ImageXpress. d Immunofluorescence images illustrating the inhibition of endolysosomal acidification by UNI418. Vero cells were treated with the mock control or 1 µM UNC3230, apilimod or UNI418 for 1 h at 37 °C. Acridine orange (4 µg/mL) was added to the compound-treated live cells, followed by additional incubation for 30 min. The cells were analyzed by confocal microscopy using two emission wavelengths at 493–560 (green) and 590–720 nm (red) after excitation at 488 nm. Merged images are presented, and images within the white rectangular boxes are magnified on the right side. Original magnification, 630×. The green-to-red fluorescence intensity ratio (e) and the area of fluorescent spots (f) were quantified. b, c, e, f The data are presented as the means ± SEMs, with a minimum of 200 spots. Statistical significance was determined by Student’s t test; *p < 0.05, **p < 0.01, ***p < 0.001 and ****p < 0.0001. n.s., not significant.

[3] = tested on: Wuhan-Hu-1 spike-pseudotyped virus; experiment: microbe, parasite or virus in culture; type: cell-based, SARS-CoV-2; conditions: read-out: concentration that inhibited spike-mediated viral entry by 50% compared to maximal inhibition
RPE1 cells [4] = experiment: Vacuolization analysis; type: cell-based
Procedure: CUGAUCAAGAU G A -3 and PIKfyve#2 siRNA 5'-
[…] -3'. siRNA oligonucleotides were purchased from Genolution, Sigma- Aldrich and Integrated DNA Technologies.
These siRNAs were transfected into the cell using lipofectamine RNAiMAX (Invitrogen, 13778150) following manufacturer ’s protocol.
RPE1 cells were treated with UNI418 at indicated concentration for over-night.
After that, the image was taken by EVOS M5000 (Thermo Fisher Scientific).
RPE1 cells were treated with UNI418 at the different concentration during the time. Live cell images were taken by Lionheart LX Automated Microscope and analyzed in Gen5 (Agilent).
RPE1 cells were treated with indicated doses of UNI418 overnight. To analyze PIP2 level by flow cytometry, trypsinized cells were fixed with 4% paraformaldehyde for 10 min at room temperature. The fixed cells were permeabilized with 0.2% PBS-T (Triton X-100) for 5min and blocked with 5% Bovine Serum Albumin (BSA), and stained with the primary antibody for 4h at 4°C. Cells were washed three times with 1% BSA-PBS and incubated with the fluorescence- conjugated secondary antibody Alexa Fluor® 488 AffiniPure Goat Anti-Mouse IgG (H+L) (Jackson ImmunoResearch,111- 545- 003) for 1h at room temperature analyzed by BD Accuri C6 Plus flow cytometer (BD Biosciences). […]

RPE1 cells [5] = experiment: Western blot of autophagy-monitoring proteins SQSTM1/p62 and LC3-II; type: cell-based
From the text: Fig. 2 UNI418 inhibits autophagy. a Western blot analysis of p62, LC3B-I, LC3B-II and GAPDH in the presence of UNC3230, apilimod and UNI418. b Immunofluorescence staining with LC3B (green) and p62 (red) antibodies upon treatment with UNC3230, apilimod and UNI418, and images within the white rectangular boxes are magnified on the right side. Scale bar, 20 µm. c The area of fluorescence intensity from immunofluorescence images (b) was quantified after UNC3230, apilimod and UNI418 treatments. d, e Quantification of autophagic flux under normal conditions and under HBSS-induced starvation conditions with or without UNI418 treatment. RPE1 cells were treated with UNI418 (0.5 µM or 1 µM) for 2 h in the presence or absence of a lysosomal inhibitor (bafilomycin A1, BFA). Representative Western blot images (d) and the graph showing the average of 4 independent experiments (e). The error bars indicate the S.D. Statistical analysis was performed using two-way ANOVA; *p < 0.05, ***p < 0.001.
Supplementary Materials and Methods
The whole cell extracts were prepared by lysis of harvested cells with M -PER Mammalian protein extraction reagent (Thermo Fisher Scientific). The protein concentrations were determined by Bradford protein assay (Bio- Rad). The 10 to 20 μ g of prepared proteins were separated by the SDS-PAGE and transferred to PVDF membrane, which were then blocked in 5% skim milk for 30 minutes at room temperature. […] The images were obtained and quantified by Fusion solo ChemiDoc system (Vilber).
Autophagic flux assay was analyzed essentially as previously described1,2.
Briefly, RPE1 cells were treated with UNI418 (0, 0.5, or 1 µM) for 2 h with/without bafilomycin A1 to inhibit lysosomal degradation under normal growth media or HBSS. […] The LC3- II bands were quantified using Fusion Solo ChemiDoc system (Vilber) and normalized to GAPDH bands.
Autophagy flux was calculated by subsidizing the lysosomal inhibitor-treated cells to non- treatment cells in both normal growth media and HBSS-induced starvation with 0, 0.5, or 1 µM UNI418. […]

cathepsin D = experiment: Cathepsin D maturation by Western blot; type: cell-based
Vero cells [6] = tested on: Vero cells
in vitro = conditions: African green monkey

O=C(N/N=C/c1ccc(O)c(O)c1)c1cc2ccccc2cc1O [dynasore]
ACE2-mediated endocytosis triggered by spike-RBD ([1]; 0.1 mM dynasore): successfully inhibited

NC(=O)c1nc(Nc2ccccc2)sc1NC(=O)C1CCCCC1 [UNC3230]
EC50 (SARS-CoV-2): 95.1 µM
green-to-red ratio of fluorescent spots relative to mock-treated sample (Vero cells [2]): 2.6 fold
IC50 [3]: 4 µM
ACE2-mediated endocytosis triggered by spike-RBD ([1]; 0.5 μM compound): successfully inhibited
vacuolization (RPE1 cells [4]): did not induce vacuoles
accumulation of SQSTM1/p62 and LC3-II (RPE1 cells [5]): did not have the same effect
proteolytic cleavage (maturation) of cathepsin D (cathepsin D): did not
cytotoxicity on Day 2 (Vero cells [6]; Vero cells, Day 2): highly toxic
CC50 (Vero cells [6]; mock-infected Vero cells, MTT, Day 1): > 100 µM

CCC(CC)COC(=O)[C@H](C)N[P@](=O)(OC[C@H]1O[C@@](C#N)(c2ccc3c(N)ncnn23)[C@H](O)[C@@H]1O)Oc1ccccc1 [remdesivir]
EC50 (SARS-CoV-2; Severe acute respiratory syndrome coronavirus 2, Vero, 48 h): 8.9 µM
selectivity index (SI), ratio of CC50 to EC50 (SARS-CoV-2; Vero cells, Day 2): > 11.2
CC50 (in vitro): > 100 µM
